# Source: patent publication US8273881B2, “Phenazine compounds and use thereof in autoimmune and inflammatory diseases” (JJ Pharma, Inc., priority 2007, dated 2012)
# How the values were obtained:
# Type in all cases: in vivo, DBA/1 LacJ mice
# [1] = test system: anti-type II collagen antibody; conditions: after seven weeks of treatment; for terminal anti-CII levels compared with control mice: p<0.01, prednisolone gavage, Formula III i.p.; for terminal anti-CII levels compared with titers at disease onset: prednisolone 10 mg/kg gavage, Formula III 40 mg/kg i.p.
# Method: (§1) All mice were pre-bled prior to the start of the trial, subsequently at onset of arthritis and at the completion of the trial. Sera were separated and stored at −80° C. ELISA assays were performed to determine anti-type II collagen antibody levels and total immunoglobulin levels.
# ELISA plates (Nunc-Immuno plates, Denmark) were coated with 100 μl of coating buffer (0.4M phosphate buffer ph7.6) containing 5 μg of type II collagen, at 4° C. overnight. Plates were washed 3 times with PBS containing 0.05% Tween 20 (Sigma, St. Louis, Mo.) and non specific binding was blocked by PBS containing 5% non fat milk overnight at 4° C. Mouse sera diluted to 1/100 in 5% milk/PBS was added to each well and incubated overnight at 4° C. Subsequently, the plates were washed six times in PBS containing 0.05% Tween-20 and incubated with alkaline phosphatase conjugated goat anti-mouse Ig (Southern Biotechnology Associates, Birmingham, Ala.) at 37° C. for 1 hour. Plates were washed 6 times again and developed for 40 minutes in the dark, using p-nitrophenyl phosphate (Sigma, St. Louis, Mo.) as a chromatogen substrate. The resulting optical density was measured at 405 nm by using a UV max spectrophotometer (Molecular Devices, CA). Negative pre-bleed control sera and a standard mouse anti-CII antiserum were titered on each plate to ensure uniformity of the assay. Antibody binding was expressed as OD405 units-blank.
# total serum Ig = assay: ELISA of total serum immunoglobulin levels in CIA mice; conditions: prednisolone gavage; Formula III i.p.; vs control at disease onset or conclusion of trial
# Method: as §1
# Serum Ig levels was assessed using an ELISA assay. Dynatech Immulon I 96 well ELISA plates were coated with a 1/250 dilution of rabbit anti-mouse IgG (Axell) in PBS overnight at 4° C. Plates were washed ×3 with PBS containing 0.05% Tween, and blocked by the addition of 5% BSA in PBS. Serum samples diluted 1/400 in PBS/BSA was dispensed in triplicate, and a reference curve constructed by a doubling dilution titer of mouse Ig reference serum (Miles) from 1/500 to 1/256,000. The plate was incubated overnight at room temperature, and washed ×3 with PBS/Tween. One hundred μl of goat anti-IgG conjugated with alkaline phosphatase (Fisher-Biotek) (1:500 dilution in Milk/PBS/Tween) was added, and the incubation continued for 1 hour at 37° C. After washing×3 with PBS/Tween, 100 μl of paranitrophenyl phosphate solution (PNPP tablets, Sigma) in diethylolamine buffer was added to each well, and the reaction allowed to proceed for 20 minutes in the dark. The plate was read at 405 nm using a Photospectrometer (Molecular Devices), and the data analyzed using the SOFTmax analytical software package. […]
# [2] = test system: Type II collagen-induced arthritis (CIA) in mice; assay: Collagen-induced arthritis (CIA) mouse model, clinical assessment (involved paws, arthritis score); conditions: for arthritis score vs saline control treated mice (FIG. 2), overall statement: CIA mice, route not specified; for Day post the start of therapy from which a significant reduction (p<0.02) in arthritis score was achieved: each agent at its regimen, Formula III via i.p.
# Description: Type II collagen-induced arthritis (CIA) in mice is an accepted experimental model of arthritis with a number of pathological, immunological and genetic features in common with rheumatoid arthritis. This disease is induced by immunization of susceptible strains of mice with type II collagen, the major component of joint cartilage. A progressive, inflammatory arthritis develops in the majority of immunized animals, which is characterized clinically by erythema and edema, with affected paw width increases of typically 100%. A clinical scoring index has been developed to assess disease progression to joint distortion and spondylitis. […] Immunological laboratory findings include high antibody levels to type II collagen and hypergammaglobulinemia.
# This study was designed to evaluate the anti-inflammatory and anti-arthritic activity of compound of Formula III using the CIA model by observing changes in immune parameters due to treatment. The animals were administered oral corticosteroid, Enbrel, an injectable TNF inhibitor, and compound of Formula III using both oral and parenteral delivery. Seventy-five DBA/1 LacJ mice 8-10 weeks of age were obtained from Jackson Labs and quarantined in our facility for 10 days prior to experimentation. All mice weighed >16 grams at the start of the experiment. Mice were pre-bled by retro-orbital puncture, and injected with 100 μg Bovine type II collagen in Freund's complete adjuvant (FCA) intradermally at the base of the tail. Mice were monitored by daily examination for the onset of disease. Mice that developed CIA between 20 days post immunization and 42 days post immunization were assigned to one of five treatment groups on a rotational basis (to normalize onset date), and ten mice were assigned to each group. For administration, compound of Formula III was solubilized in sterile saline. To facilitate drugs delivered by oral administration, carboxymethylcellulose was added to a final concentration of 4% in all gavage solutions. Compounds were administered according to the following schedule: • Group 1. 100 μl sterile saline vehicle injected intraperitoneally (i.p.)×3/week. • Group 2. 100 μl sterile saline containing compound of Formula III at 40 mg/kg injected i.p.×3/week. • Group 3. 100 μl sterile saline containing 100 μg Enbrel injected i.p.×3/week. • Group 4. 100 μl sterile saline containing compound of Formula III at 40 mg/kg gavaged×5/week.
# Group 5. 100 μl sterile saline containing prednisolone 10 mg/kg gavaged×5/week.
# Mice were weighed weekly, and overall health status noted. Arthritiic animals were clinically assessed by visual inspection five times per week, and paw swelling quantified by caliper measurements made three times per week, until seven weeks after the initial onset of arthritis. All animals were assessed individually from the time of disease onset, and the appropriate findings were entered into clinical report forms.
# lymph node cells = assay: Lymph node cell mitogen and antigen proliferative responses (MTT) from treated CIA mice; conditions: lymphocytes from mice treated 40 mg/kg i.p.; p<0.05
# Method: Spleen and lymph nodes were removed at sacrifice, and mitogen responses to Con A and LPS, and antigen proliferative responses to type II collagen were determined using standard techniques. Lymph nodes and spleens were harvested and 1 ml of cell suspension (2.5×10^6/ml) cultured in 12-well tissue culture plates (Costar, Corning, N.Y.) with various stimuli in complete RPMI-1640 medium. Cells were incubated for 3 days at 37° C. in a 5% CO2 atmosphere in the presence of mitogen or antigen. 20 µl of MTT (a mitochondrial enzyme substrate) solution (5 mg/ml; Sigma, St Louis, Mo.) was added per well. After 6 hours, the culture supernatant was discarded, and 200 µl of 10% SDS solution added to each well. After incubation at 37° C. overnight, the optical density at 590 nm was read using a microplate photospectrometer (Molecular Devices, CA). The mean and OD values, which provide a measure of cell proliferation, were recorded for each cell sample with respect to antigen stimulation. Antigen specific responses were expressed as (OD590 [Stimulated Culture]−OD590 [Spontaneous proliferation culture])/OD590 [Spontaneous proliferation culture].
Compound,terminal anti-CII levels compared with control mice [1],terminal anti-CII levels compared with titers at disease onset [1],total serum Ig levels at the terminal bleed vs control mice (total serum Ig),"number of involved paws vs control mice ([2]; 40 mg/kg i.p. ×3/week or gavaged ×5/week, irrespective of the route of administration)","reduction in arthritis score vs saline control ([2]; 40 mg/kg i.p. ×3/week, p<0.02 from Day 23, p<0.007 at Day 24, sustained until end of trial)",effect upon arthritis score vs saline control ([2]; 40 mg/kg oral gavage ×5/week),"arthritis score vs saline control treated mice (FIG. 2), overall statement [2]",Day post the start of therapy from which a significant reduction (p<0.02) in arthritis score was achieved [2] [days],lymph node cell response to LPS (lymph node cells),"number of involved (arthritic) paws vs control mice ([2]; prednisolone 10 mg/kg gavaged ×5/week, from Day 16 after arthritis onset throughout the study, p<0.002)","reduction in arthritis score vs saline control ([2]; prednisolone 10 mg/kg gavaged ×5/week, p<0.02 from Day 12, p<0.001 at day 17, sustained for remainder of trial)","number of involved (arthritic) paws vs control mice ([2]; 100 μg Enbrel i.p. ×3/week, Day 25 through Day 28, p<0.05)","reduction in arthritis score vs saline control ([2]; 100 μg Enbrel i.p. ×3/week, p<0.02 from Day 12, not sustained until 23 days of therapy)"
COc1cccc2c1[n+]([O-])c1cccc(O)c1[n+]2[O-] [compound of Formula III],significant reduction,maintenance of titers equivalent to the levels at onset,this reduction was not significantly different,did not significantly influence the number of involved paws,significant reduction,did not exert a statistically significant effect,marked effect upon the arthritis score,23,significant reduction,,,,
C[C@]12C=CC(=O)C=C1CC[C@@H]1[C@@H]2[C@@H](O)C[C@@]2(C)[C@H]1CC[C@]2(O)C(=O)CO [prednisolone],significant reduction,minor decrease,this reduction was not significantly different,,,,significantly reduced the arthritis score,12,,significantly lower number of arthritic paws,significant reduction,,
Enbrel,,,,,,,significantly reduced the arthritis score,12,,,,significantly lower number of arthritic paws,significant reduction
